Source: PMC10583863 (European journal of medicinal chemistry, 2022)

Assays:
Format in all cases: cell-based, Mycobacterium tuberculosis
DR1 (mmpl3, V681I) = system: DR1 (mmpl3, V681I)
53.8 (Rv0579, L240V) = system: 53.8 (Rv0579, L240V)
NTB1 (dprE1, G387S) = system: NTB1 (dprE1, G387S)
88.7 (pyrG, V186G) = system: 88.7 (pyrG, V186G)
88.1 (coaA, Q207R) = system: 88.1 (coaA, Q207R)
53.3 (Rv2466c, W28S) = system: 53.3 (Rv2466c, W28S)

Measured: MIC90

NNC(=O)c1ccncc1 [INH, Isoniazide]
0.025 µg/mL: all assays above
